Experimental findings from paper PMC7463460, “Structure and Antiparasitic Activity Relationship of Alkylphosphocholine Analogues against Leishmania donovani” (Microorganisms, 2020) are described below.

Where “and” joins values, the source holds several entries; their conditions need not be identical. Equal entries are not always repeated. Where two headings read alike, the source gives them in different places. Bounds are passed on as bounds.

Series [1] is described as follows: Cytotoxicity against uninfected macrophages (alamar blue). To be noted: BALB/c, mouse, read-out: Macrophage mean IC50 (CC50) (converted). The series is classed as cell-based, BALB/c mice. As to the method:
(§1) The effect of drug treatment on parasite survival was determined by calculating the mean suppression in the light emitted from the drug-treated experimental sample compared to the mean control value and used to calculate the IC50 using Grafit® software (version 5.0, Erithacus Software, East Grinstead, West Sussex, UK). The effect of drug alone on the viability of uninfected macrophages was determined using the same experimental protocol above, but cell viability was determined using an alamar blue colorimetric assay. At the end of the incubation period, cells’ 10 µL resazurin solution (0.02% w/v) was added to control and drug treated cells and the absorbance of samples was read at 575 and 595 nm. The effect of drug treatment on cell survival, which correlates with the magnitude of dye reduction, was expressed as percentage viability (or alamar blue reduction) and determined using the formula provided in the manufacturer’s protocol % alamar blue reduction=(εoxλ)(Aλ1)−(εoxλ1)(Aλ2)/(εredλ1)(A^′λ2)−(εredλ2)(A^′λ1)x100
In the formula, ελ1 and ελ2 are constants representing the molar extinction coefficient of alamar blue at 575 and 595 nm, respectively, in the oxidized (εox) and reduced (εred) forms. Aλ1, Aλ2 and A’λ1, A’λ2 represent absorbance of test and negative control wells at 575 and 595 nm, respectively. The values of % alamar blue reduction (or % viability) were corrected for background values of negative controls containing medium without cells. Percent viability values were used to calculate the IC50 using Grafit® software (version 5.0).
(In general: The colour change of resazurin is a common sign of viable cells or microbes.)

Series [2] deals with L. donovani 087/11 (Sb-intermediate) promastigotes. Put plainly: microbe, parasite or virus in culture. To be noted: for Promast: Amast Ratio: strain 087/11, Sb-intermediate; for IC50: Leishmania donovani, read-out: Mean IC50 Promastigotes; for Cross-Resistance Index (CRI50) Promast: strain 087/11, Sb-intermediate vs Sb-S. The series is classed as cell-based, Leishmania donovani.
Description: (§2) L. donovani cloned strains with different Sb susceptibility backgrounds were derived from isolates obtained from VL patients at the B.P. Koirala Institute of Health Sciences, Dharan, Nepal: MHOM/NP/02/BPK282/0cl4 (Sb sensitive, Sb-S). MHOM/NP/02/BPK087/0cl11 (Sb intermediate, Sb-I) and MHOM/NP/02/BPK275/0cl18 (Sb resistance, Sb-R [13]). In addition, Milt-resistant parasites raised against these three Sb sensitivity backgrounds and the Sb-sensitive strain (MHOM/ET/67:LV82) was also used in studies. Luciferase expressing promastigotes for the LV82 and Nepalese strains were prepared using previously published methods and the integrative construct (a gift from Dr D.F. Smith), designated pGL1313, contained pSSU-int fragments to facilitate integration into the ribosomal RNA locus of Leishmania.
(§3) Luciferin solution (1 µg/mL in 20 µL medium without FCS) was added to the appropriate wells of the 96-well plate at the end of the experiment and the amount of light emitted/well was measured using a luminometer (Biotek Synergy HT, relative light units) using a wavelength/bandwidth of 440/40 nm, or IVIS® imaging (Spectrum Living Image system®, total flux, photons/sec).
as §1, with “At the end of the incubation period, cells’ 10 µL resazurin solution (0.02% w/v) was added to control and drug treated cells and the absorbance of samples was read at 575 and 595 nm.” left out
Cross resistance (CRI50) indexes were determined as Cross selectivity indices (CRI)=mean IC50 value for the relevant drug−resistant strain i.e., Sb−I or Sb−R / mean IC50 value drug−sensitive strain Sb−S

In series [3] the test system is L. donovani 282/4 Milt-Sb-sensitive promastigotes. In words: Promastigote luciferase assay, Milt-resistant 282/4. The series is classed as cell-based, Leishmania donovani. The conditions noted are these: for IC50: Leishmania donovani, read-out: Mean IC50 Value Promastigotes; for Promast: Amast Ratio: strain 282/4, Milt-Sb-sensitive.
Description: as §2
The anti-leishmanial activity of APC against L. donovani luciferase-expressing promastigotes was determined by adding of the appropriate 100 µL parasite line (10^6 cells/mL) to the wells of a 96-well plate and adding 100 µL medium alone (controls) or 100 µL of APC compound (0.01 µg/mL–6.25 µg/mL, n = 3/treatment). The plate was incubated for 72 h at 25 °C. In combination assays, the additional compound/compounds, at a final concentration of 0.195 or 0.39 µg/mL, was added to the initial APC being tested.
as §3, §1

Where [4] appears, read: uninfected bone-marrow-derived macrophages.

In general, IC50 refers to the concentration that inhibits the measured activity by half. With `CCCCCCCCCCCCCCCCOP(=O)([O-])OCC[N+](C)(C)C` [APC16, hexadecylphosphocholine, reference compound], the IC50 at 3 days in series [1] is 5.08 µg/mL and 12.5 µM. Besides, the “Promast: Amast Ratio” value in series [2] is 5.15. In addition, in series [3], the IC50 was > 125 µg/mL and > 307 µM; the “Promast: Amast Ratio” value is listed as more than 77.64.

Take `CCCCCCCCCCCCCCOP(=O)([O-])OCC[N+](C)(C)C` [APC14, tetradecylphosphocholine]: the IC50 at 3 days in series [1] (setting [4]) is 40.9 µg/mL and 108 µM. Also, in series [2], the IC50 was 0.21 µg/mL and 550 nM; the “Promast: Amast Ratio” value was found to be 1.05; the “Cross-Resistance Index (CRI50) Promast” value came out at 0.48. Besides, in series [3], the IC50 was > 125 µg/mL and > 329 µM; the “Promast: Amast Ratio” value is listed as more than 72.25.

For the compound `CCCCCCCCCCCCOP(=O)([O-])OCC[N+](C)(C)C` [APC12, dodecylphosphocholine], in series [1] (setting [4]), the IC50 at 3 days is 35.4 µg/mL and 101 µM. In series [2], the IC50 is 0.42 µg/mL and 1.19 µM; the “Promast: Amast Ratio” value is recorded as 2.11; the “Cross-Resistance Index (CRI50) Promast” value is 0.76. Also, in series [3], the IC50 was > 125 µg/mL and > 356 µM; the “Promast: Amast Ratio” value was more than 1562.5.
